Measured values published in US9540391B2, “Isomannide derivatives as inhibitors of soluble epoxide hydrolase” (SANOFI, priority 2013, dated 2017).

The molecules below were run against T1, recombinant sEH (Homo sapiens, UniProt P34913) (assay: biochemical screening assay for inhibition of soluble epoxide hydrolase (fluorometric, Phome substrate)).
T1 construct: made in house; host or cells: Sf9 insect cells
T1 sequence (P34913 1-555): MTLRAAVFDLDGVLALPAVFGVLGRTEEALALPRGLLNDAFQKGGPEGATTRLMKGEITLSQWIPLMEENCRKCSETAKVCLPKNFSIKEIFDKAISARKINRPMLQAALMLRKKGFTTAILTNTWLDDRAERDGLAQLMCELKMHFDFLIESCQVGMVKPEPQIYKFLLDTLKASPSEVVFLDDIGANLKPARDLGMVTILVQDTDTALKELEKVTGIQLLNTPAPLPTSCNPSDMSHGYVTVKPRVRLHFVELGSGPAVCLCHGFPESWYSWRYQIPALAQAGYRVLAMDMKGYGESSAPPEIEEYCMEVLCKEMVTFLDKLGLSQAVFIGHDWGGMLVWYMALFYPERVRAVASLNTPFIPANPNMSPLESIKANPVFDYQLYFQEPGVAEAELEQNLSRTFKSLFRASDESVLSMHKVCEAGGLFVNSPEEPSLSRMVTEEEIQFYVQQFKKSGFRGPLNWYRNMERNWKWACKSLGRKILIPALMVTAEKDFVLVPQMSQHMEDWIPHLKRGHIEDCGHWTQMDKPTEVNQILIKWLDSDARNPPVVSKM
In short: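 Reading fluorescence before substrate addition and after completion corrected for autofluorescence. Reaction: 5 μM Phome, 2 nM recombinant human sEH (Sf9-expressed), compound 0.0001–10 μM, 25 mM Hepes with 0.01% albumin, 15 min pre-incubation then 60 min at 30 °C; IC50 derived from % inhibition.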

Row | IC50 [nM] | SMILES
1 | 88 | Cc1ncccc1O[C@H]1CO[C@H]2[C@@H]1OC[C@@H]2NC(=O)NCc1cccc2c1OCCO2 [Example 200, 1-(2,3-Dihydro-benzo[1,4]dioxin-5-ylmethyl)-3-[(3S,3aR,6S,6aS)-6-(2-methyl-pyridin-3-yloxy)-hexahydro-furo[3,2-b]furan-3-yl]-urea]
2 | 5790 | Cc1ncccc1O[C@H]1CO[C@H]2[C@@H]1OC[C@@H]2NC(=O)NCC1CCC(=O)N1 (stereo partly drawn) [Example 201, 1-[(3S,3aR,6S,6aS)-6-(2-Methyl-pyridin-3-yloxy)-hexahydro-furo[3,2-b]furan-3-yl]-3-(5-oxo-pyrrolidin-2-ylmethyl)-urea]
3 | 345 | COc1cccc(CNC(=O)N[C@H]2CO[C@H]3[C@@H]2OC[C@@H]3Oc2cccnc2C)n1 [Example 202, 1-(6-Methoxy-pyridin-2-ylmethyl)-3-[(3S,3aR,6S,6aS)-6-(2-methyl-pyridin-3-yloxy)-hexahydro-furo[3,2-b]furan-3-yl]-urea]
4 | 28 | COc1cc(CNC(=O)N[C@H]2CO[C@H]3[C@@H]2OC[C@@H]3Oc2cccnc2C)ccn1 [Example 203, 1-(2-Methoxy-pyridin-4-ylmethyl)-3-[(3S,3aR,6S,6aS)-6-(2-methyl-pyridin-3-yloxy)-hexahydro-furo[3,2-b]furan-3-yl]-urea]
5 | 734 | Cc1ncccc1O[C@H]1CO[C@H]2[C@@H]1OC[C@@H]2NC(=O)NC(C)(C)c1ccc(F)cc1 [Example 204, 1-[1-(4-Fluoro-phenyl)-1-methyl-ethyl]-3-[(3S,3aR,6S,6aS)-6-(2-methyl-pyridin-3-yloxy)-hexahydro-furo[3,2-b]furan-3-yl]-urea]
6 | 528 | Cc1cccnc1CCNC(=O)N[C@H]1CO[C@H]2[C@@H]1OC[C@@H]2Oc1cccnc1C [Example 205, 1-[2-(3-Methyl-pyridin-2-yl)-ethyl]-3-[(3S,3aR,6S,6aS)-6-(2-methyl-pyridin-3-yloxy)-hexahydro-furo[3,2-b]furan-3-yl]-urea]
7 | 2 | Cc1ncccc1OC1COC2C(NC(=O)NCCc3ccccc3OC(F)(F)F)COC12 [Example 206, 1-[(3S,3aR,6S,6aS)-6-(2-Methyl-pyridin-3-yloxy)-hexahydro-furo[3,2-b]furan-3-yl]-3-[2-(2-trifluoro-methoxy-phenyl)-ethyl]-urea]
8 | 3 | Cc1ncccc1O[C@H]1CO[C@H]2[C@@H]1OC[C@@H]2NC(=O)NC1CCOc2ccccc21 (stereo partly drawn) [Example 207, 1-Chroman-4-yl-3-[(3S,3aR,6S,6aS)-6-(2-methyl-pyridin-3-yloxy)-hexa-hydro-furo[3,2-b]furan-3-yl]-urea]
9 | 15 | Cc1ncccc1O[C@H]1CO[C@H]2[C@@H]1OC[C@@H]2NC(=O)NCc1ccc(Cl)s1 [Example 208, 1-(5-Chloro-thiophen-2-ylmethyl)-3-[(3S,3aR,6S,6aS)-6-(2-methyl-pyridin-3-yloxy)-hexahydro-furo[3,2-b]furan-3-yl]-urea]
10 | 819 | Cc1ncccc1O[C@H]1CO[C@H]2[C@@H]1OC[C@@H]2NC(=O)NCC1(C)CCCO1 (stereo partly drawn) [Example 209, 1-[(3S,3aR,6S,6aS)-6-(2-Methyl-pyridin-3-yloxy)-hexahydro-furo[3,2-b]furan-3-yl]-3-(2-methyl-tetrahydro-furan-2-ylmethyl)-urea]
11 | 144 | COCC1(NC(=O)N[C@H]2CO[C@H]3[C@@H]2OC[C@@H]3Oc2cccnc2C)CCCC1 [Example 210, 1-(1-Methoxymethyl-cyclopentyl)-3-[(3S,3aR,6S,6aS)-6-(2-methyl-pyridin-3-yloxy)-hexahydro-furo[3,2-b]furan-3-yl]-urea]
12 | 1080 | COCC(NC(=O)N[C@H]1CO[C@H]2[C@@H]1OC[C@@H]2Oc1cccnc1C)c1ccnn1C (stereo partly drawn) [Example 211, 1-[2-Methoxy-1-(2-methyl-2H-pyrazol-3-yl)-ethyl]-3-[(3S,3aR,6S,6aS)-6-(2-methyl-pyridin-3-yloxy)-hexahydro-furo[3,2-b]furan-3-yl]-urea]
13 | 37 | Cc1ncccc1O[C@H]1CO[C@H]2[C@@H]1OC[C@@H]2NC(=O)NC1CCN(C(=O)C(C)C)CC1 [Example 212, 1-(1-Isobutyryl-piperidin-4-yl)-3-[(3S,3aR,6S,6aS)-6-(2-methyl-pyridin-3-yloxy)-hexahydro-furo[3,2-b]furan-3-yl]-urea]
14 | 3 | Cc1ncccc1O[C@H]1CO[C@H]2[C@@H]1OC[C@@H]2NC(=O)NC[C@@H]1C[C@@H]2C[C@H]([C@H]1C)C2(C)C [Example 213, 1-[(3S,3aR,6S,6aS)-6-(2-Methyl-pyridin-3-yloxy)-hexahydro-furo[3,2-b]furan-3-yl]-3-((1R,2R,3R,5S)-2,6,6-trimethyl-bicyclo[3.1.1]hept-3-ylmethyl)-urea]
15 | 14 | Cc1ncccc1O[C@H]1CO[C@H]2[C@@H]1OC[C@@H]2NC(=O)NC(C)c1ccc(F)cc1 (stereo partly drawn) [Example 214, 1-[1-(4-Fluoro-phenyl)-ethyl]-3-[(3S,3aR,6S,6aS)-6-(2-methyl-pyridin-3-yloxy)-hexahydro-furo[3,2-b]furan-3-yl]-urea]
16 | 238 | Cc1ncccc1O[C@H]1CO[C@H]2[C@@H]1OC[C@@H]2NC(=O)Nc1cc(C(C)(C)C)[nH]n1 [Example 215, 1-(5-tert-Butyl-1H-pyrazol-3-yl)-3-[(3S,3aR,6S,6aS)-6-(2-methyl-pyridin-3-yloxy)-hexahydro-furo[3,2-b]furan-3-yl]-urea]
17 | 125 | Cc1ncccc1O[C@H]1CO[C@H]2[C@@H]1OC[C@@H]2NC(=O)NC1CCOCC1 [Example 216, 1-[(3S,3aR,6S,6aS)-6-(2-Methyl-pyridin-3-yloxy)-hexahydro-furo[3,2-b]furan-3-yl]-3-(tetrahydro-pyran-4-yl)-urea]
18 | 389 | Cc1nc(CCNC(=O)N[C@H]2CO[C@H]3[C@@H]2OC[C@@H]3Oc2cccnc2C)cs1 [Example 218, 1-[(3S,3aR,6S,6aS)-6-(2-Methyl-pyridin-3-yloxy)-hexahydro-furo[3,2-b]furan-3-yl]-3-[2-(2-methyl-thiazol-4-yl)-ethyl]-urea]
19 | 1900 | Cc1ncccc1O[C@H]1CO[C@H]2[C@@H]1OC[C@@H]2NC(=O)NCC1CN(C)CCO1 (stereo partly drawn) [Example 219, 1-(4-Methyl-morpholin-2-ylmethyl)-3-[(3S,3aR,6S,6aS)-6-(2-methyl-pyridin-3-yloxy)-hexahydro-furo[3,2-b]furan-3-yl]-urea]
20 | 506 | Cc1ncccc1O[C@H]1CO[C@H]2[C@@H]1OC[C@@H]2NC(=O)NC1(C#N)CCCCC1 [Example 220, 1-(1-Cyano-cyclohexyl)-3-[(3S,3aR,6S,6aS)-6-(2-methyl-pyridin-3-yloxy)-hexahydro-furo[3,2-b]furan-3-yl]-urea]
21 | 96 | Cc1ncccc1O[C@H]1CO[C@H]2[C@@H]1OC[C@@H]2NC(=O)NC1CCCOC1 (stereo partly drawn) [Example 221, 1-[(3S,3aR,6S,6aS)-6-(2-Methyl-pyridin-3-yloxy)-hexahydro-furo[3,2-b]furan-3-yl]-3-(tetrahydro-pyran-3-yl)-urea]
22 | 54 | Cc1ncccc1O[C@H]1CO[C@H]2[C@@H]1OC[C@@H]2NC(=O)NCc1c(C)n[nH]c1C [Example 222, 1-(3,5-Dimethyl-1H-pyrazol-4-ylmethyl)-3-[(3S,3aR,6S,6aS)-6-(2-methyl-pyridin-3-yloxy)-hexahydro-furo[3,2-b]furan-3-yl]-urea]
23 | 262 | Cc1ncccc1O[C@H]1CO[C@H]2[C@@H]1OC[C@@H]2NC(=O)NCCc1ccc(S(C)(=O)=O)cc1 [Example 223, 1-[2-(4-Methanesulfonyl-phenyl)-ethyl]-3-[(3S,3aR,6S,6aS)-6-(2-methyl-pyridin-3-yloxy)-hexahydro-furo[3,2-b]furan-3-yl]-urea]
24 | 39 | Cc1ncccc1O[C@H]1CO[C@H]2[C@@H]1OC[C@@H]2NC(=O)NCc1cccc2c1OC(C)(C)C2 [Example 224, 1-(2,2-Dimethyl-2,3-dihydro-benzofuran-7-ylmethyl)-3-[(3S,3aR,6S,6aS)-6-(2-methyl-pyridin-3-yloxy)-hexahydro-furo[3,2-b]furan-3-yl]-urea]
25 | 43 | Cc1nn(C(C)C)cc1NC(=O)N[C@H]1CO[C@H]2[C@@H]1OC[C@@H]2Oc1cccnc1C [Example 225, 1-(1-Isopropyl-3-methyl-1H-pyrazol-4-yl)-3-[(3S,3aR,6S,6aS)-6-(2-methyl-pyridin-3-yloxy)-hexahydro-furo[3,2-b]furan-3-yl]-urea]
26 | 1680 | Cc1nc(CNC(=O)N[C@H]2CO[C@H]3[C@@H]2OC[C@@H]3Oc2cccnc2C)cs1 [Example 227, 1-[(3S,3aR,6S,6aS)-6-(2-Methyl-pyridin-3-yloxy)-hexahydro-furo[3,2-b]furan-3-yl]-3-(2-methyl-thiazol-4-ylmethyl)-urea]

Row | SMILES | IC50 [nM]
27 | Cc1ncccc1O[C@H]1CO[C@H]2[C@@H]1OC[C@@H]2NC(=O)NCCOC(C)(C)C [Example 217, 1-(2-tert-Butoxy-ethyl)-3-[(3S,3aR,6S,6aS)-6-(2-methyl-pyridin-3-yloxy)-hexahydro-furo[3,2-b]furan-3-yl]-urea] | 371
28 | Cc1ncccc1O[C@H]1CO[C@H]2[C@@H]1OC[C@@H]2NC(=O)NC(C)(C)COC(C)(C)C [Example 226, 1-(2-tert-Butoxy-1,1-dimethyl-ethyl)-3-[(3S,3aR,6S,6aS)-6-(2-methyl-pyridin-3-yloxy)-hexahydro-furo[3,2-b]furan-3-yl]-urea] | 475
